The numbers were not newly measured in US20090318371A1 (priority 2006, published 2009), which cites them from elsewhere.

The test system of data set [1] is human polymorphonuclear leukocyte chemotactic and chemokinetic responses. To be noted: in vivo and in vitro.
For data set [2] the following is noted: clinical studies.
For data set [3] the following is noted: topical administration.
For data set [4] the following is noted: Ames test. On the technique in general: In the Ames test, an excess of revertant colonies over the control signals mutagenicity.
For data set [5], the system named is Propionibacterium acnes.
For data set [6] the following is noted: clinical phase I.
The conditions of data set [7]: topical application to mice for 21 months.
For data set [8] the following is noted: Phase III clinical studies.
The conditions of data set [9]: during the following 10 hours of topical administration.
For data set [10] the following is noted: Ames, chromosomal aberration and micronuclei.
The conditions of data set [11]: multiple topical administrations, equivalent to 10 mg/ml in water and isopropyl alcohol solution.

`COc1ccc(-c2ccc3cc(C(=O)O)ccc3c2)cc1C12CC3CC(CC(C3)C1)C2` [Adapalene]: the “Anti-inflammatory activity compared to other topical retinoids” value in data set [1] is listed as “superior to other topical retinoids”. The Plasma levels result in [2] was “no significant plasma levels were detected”. In addition, the “Presence of Adapalene compared to Tretinoin on the dermis” value in data set [3] (dermis) is given as −37%. Moreover, the “Presence of Adapalene compared to Tretinoin on the epidermis” value in data set [3] (epidermis) is “+51%”. The “Presence of Adapalene compared to Tretinoin in receptor fluid” value in [3] (receptor fluid) is −71%.

Take `O=C(OOC(=O)c1ccccc1)c1ccccc1` [Benzoyl peroxide]: the Mutagenicity entry in [4] was “not mutagenic”. Further, the “Activity against Propionibacterium acnes” value in data set [5] is “effective against Propionibacterium acnes”.

Take `CCC[C@@H]1C[C@@H](C(=O)N[C@@H]([C@H]2O[C@H](SC)[C@H](O)[C@@H](O)[C@H]2O)[C@H](C)Cl)N(C)C1` [Clindamycin]: under “in vivo”, the “Binding to plasma proteins” value is on record as “Ninety percent or more”. Moreover, the “Share of administered clindamycin excreted intact in urine” value (urine) was 10%.

`CCOC(=O)c1ccc(C#Cc2ccc3c(c2)C(C)(C)CCS3)nc1` [Tazarotene]: the “Sensitization, phototoxicity or photoallergicity” value in data set [6] is given as “does not cause sensitization, phototoxicity or photoallergicity”. The Carcinogenic effects entry in data set [7] is “non-carcinogenic effects”. Moreover, in [8], the Adverse effects reported entry was “burning sensation, skin scaling and dryness”. For the same compound, the “Absorption, share of the dose absorbed” value in [9] was “Less than 6.0%”. Further, in data set [10], the “Mutagenicity, clastogenic or chromosomal effects” value is “not mutagenic and has no clastogenic or chromosomal effects”.

As for `CCC[C@@H]1C[C@@H](C(=O)N[C@@H]([C@H]2O[C@H](SC)[C@H](OP(=O)(O)O)[C@@H](O)[C@H]2O)[C@H](C)Cl)N(C)C1` [clindamycin phosphate, Clindamycin phosphate], in data set [11], the “Share of the dosage recovered in urine as clindamycin” value was “less than 0.2%”.
